Test results taken from US7288537B2, “Azetidine derivatives as CCR-3 receptor antagonists” (Novartis AG, priority 2002, dated 2007).

Key:
[1] = molecular target: T1, human CCR-3 (Homo sapiens, UniProt P51677); assay: CCR-3 binding assay (SPA, [125I]-human eotaxin); conditions: membranes of RBL-2H3 cells stably expressing CCR3, 4 hours at room temperature, read-out: IC50, inhibition of binding of human eotaxin to human CCR-3
T1 construct: expressed in transfected cells; membranes
T1 sequence (P51677 1-355): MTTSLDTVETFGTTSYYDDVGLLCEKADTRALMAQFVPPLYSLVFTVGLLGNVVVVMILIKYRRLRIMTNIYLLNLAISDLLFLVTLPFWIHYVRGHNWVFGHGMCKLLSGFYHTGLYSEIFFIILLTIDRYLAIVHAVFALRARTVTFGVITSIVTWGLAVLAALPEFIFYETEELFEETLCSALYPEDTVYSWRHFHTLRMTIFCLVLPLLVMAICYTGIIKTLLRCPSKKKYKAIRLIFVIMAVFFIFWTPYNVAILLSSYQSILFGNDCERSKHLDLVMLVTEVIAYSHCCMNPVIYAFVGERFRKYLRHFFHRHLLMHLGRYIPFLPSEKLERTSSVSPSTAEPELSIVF
Description: In this assay the effect of agents of the invention on the binding of human eotaxin to human CCR-3 is determined. Recombinant cells expressing human CCR-3 are captured by wheatgerm agglutinin (WGA) polyvinyltoluidene (PVT) SPA beads (available from Amersham), through a specific interaction between the WGA and carbohydrate residues of glycoproteins on the surface of the cells. [^125I]-human eotaxin (available from Amersham) binds specifically to CCR-3 receptors bringing the [^125I]-human eotaxin in close proximity to the SPA beads. Emitted â-particles from the [^125I]-human eotaxin excite, by its proximity, the fluorophore in the beads and produce light.
Preparation of Assay Buffer: 5.96 g HEPES and 7.0 g sodium chloride are dissolved in distilled water and 1M aqueous CaCl2 (1 ml) and 1M aqueous MgCl2 (5 ml) are added. The pH is adjusted to 7.6 with NaOH and the solution made to a final volume of 1 L using distilled water. 5 g bovine serum albumin and 0.1 g sodium azide are then dissolved in the solution and the resulting buffer stored at 4° C. A Complete™ protease inhibitor cocktail tablet (available from Boehringer) is added per 50 ml of the buffer on the day of use.
Preparation of Homogenisation Buffer: Tris-base (2.42 g) is dissolved in distilled water, the pH of the solution is adjusted to 7.6 with hydrochloric acid and the solution is diluted with distilled water to a final volume of 1 l. The resulting buffer is stored at 4° C. A Complete™ protease inhibitor cocktail tablet is added per 50 ml of the buffer on the day of use.
Preparation of membranes: Confluent rat basophil leukemia (RBL-2H3) cells stably expressing CCR3 are removed from tissue culture flasks using enzyme-free cell dissociation buffer and resuspended in phosphate-buffered saline. The cells are centrifuged (800 g, 5 minutes), the pellet resuspended in ice-cold homogenisation buffer using 1 ml homogenisation buffer per gram of cells and incubated on ice for 30 minutes. The cells are homogenised on ice with 10 strokes in a glass mortar and pestle. The homogenate is centrifuged (800 g, 5 minutes, 4° C.), the supernatant further centrifuged (48,000 g, 30 minutes, 4° C.) and the pellet redissolved in Homogenisation Buffer containing 10% (v/v) glycerol. The protein content of the membrane preparation is estimated by the method of Bradford (Anal. Biochem. (1976) 72:248) and aliquots are snap frozen and stored at −80° C.
The assay is performed in a final volume of 250 μl per well of an Optiplate™ microplate (ex Canberra Packard). To selected wells of the Optiplate™ are added 50 μl of solutions of a test compound in Assay Buffer containing 5% DMSO (concentrations from 0.01 nM to 10 μM). To determine total binding, 50 μl of the Assay Buffer containing 5% DMSO is added to other selected wells. To determine non-specific binding, 50 μl of 100 nM human eotaxin (ex R&D Systems) in Assay Buffer containing 5% DMSO is added to further selected wells. To all wells are added 50 μl [^125I]-Human eotaxin (ex Amersham) in Assay Buffer containing 5% DMSO at a concentration of […] (to give a final concentration of […]), 50 μl of WGA-PVT SPA beads in Assay Buffer (to give a final concentration of 1.0 mg beads per well) and 100 μl of the membrane preparation at a concentration of 100 μg protein in Assay Buffer (to give a final concentration of 10 μg protein per well). The plate is then incubated for 4 hours at room temperature. The plate is sealed using TopSeal-S™ sealing tape (ex Canberra Packard) according to the manufacturers instructions. The resulting scintillations are counted using a Canberra Packard TopCount™ scintillation counter, each well being counted for 1 minute. The concentration of test compound at which 50% inhibition occurs (IC50) is determined from concentration-inhibition curves in a conventional manner.

[2] = molecular target: histamine H1 (Homo sapiens, UniProt P35367); assay: histamine H1 antagonism
histamine H1, sequence (P35367 whole entry): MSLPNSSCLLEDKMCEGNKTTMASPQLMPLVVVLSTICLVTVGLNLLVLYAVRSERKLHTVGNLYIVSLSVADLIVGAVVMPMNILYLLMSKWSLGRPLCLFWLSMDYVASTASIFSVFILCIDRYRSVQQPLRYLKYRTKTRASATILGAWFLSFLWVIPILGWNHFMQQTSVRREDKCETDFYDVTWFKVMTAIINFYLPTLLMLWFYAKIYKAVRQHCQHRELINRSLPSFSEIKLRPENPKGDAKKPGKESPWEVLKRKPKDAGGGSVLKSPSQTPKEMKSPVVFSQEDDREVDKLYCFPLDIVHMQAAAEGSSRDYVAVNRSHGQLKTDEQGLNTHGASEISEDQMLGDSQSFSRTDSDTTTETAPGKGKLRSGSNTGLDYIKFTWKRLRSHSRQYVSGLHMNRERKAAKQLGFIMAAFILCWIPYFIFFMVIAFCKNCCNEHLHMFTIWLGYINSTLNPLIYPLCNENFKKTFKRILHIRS

[3] = molecular target: alpha-1 adrenergic receptor; assay: alpha-1 adrenergic receptor radioligand binding assay ([125I]-HEAT, cerebral cortex membranes); conditions: rat cerebral cortex membranes; radioligand used at 40 pM
Description: Cerebral cortices from male Sprague-Dawley rats (175-200 g) are dissected and homogenised in 10 volumes of ice cold 0.32 M sucrose (containing 1 mM MgCl2 dihydrate and 1 mM K2HPO4) with a glass/teflon homogeniser. The membranes are centrifuged at 1000×g for 15 miN, the pellet discarded and the centrifugation repeated. The supernatants are pooled and centrifuged at 18,000×g for 15 minutes. The pellet is osmotically shocked in 10 volumes of water and kept on ice for 30 minutes. The suspension is centrifuged at 39,000×g for 20 minutes, resuspended in Krebs-Henseleit buffer pH 7.4 (1.17 mM MgSO4 anhydrous, 4.69 mM KCl, 0.7 mM K2HPO4 anhydrous, 0.11 M NaCl, 11 mM D-glucose and 25 mM NaHCO3) containing 20 mM Tris, and kept for 2 days at −20° C. The membranes are then thawed at 20-23° C., washed three times with Krebs-Henseleit buffer by centrifugation at 18,000×g for 15 minutes, left overnight at 4° C. and washed again three times. The final pellet is resuspended with a glass/teflon homogeniser in 125 ml/100 membranes in the same buffer. […]
The resulting membranes are subjected to a radioligand binding assay. […] Following drying of the plates for 3 h. at 50° C., 40 μl of Microscint 20 is added to each well, the plates incubated at room temperature for a further 20 minutes and the retained radioactivity quantified in a Packard TopCount NXT™ scintillation counter. […]

SMILES | IC50 [1] [nM] | histamine H1 antagonist activity [2] | Kd [3] [nM]
COc1cc(NC(=O)N[C@H](CO)CCN2CC(Oc3ccc(Cl)cc3)C2)cc(OC)c1 [Example 26, 1-{(S)-3-[3-(4-Chloro-phenoxy)-azetidin-1-yl]-1-hydroxymethyl-propyl}-3-(3,5-dimethoxy-phenyl)-urea] | 7 | – | –
Cn1nc(C2CC2)cc1NC(=O)N[C@H](CO)CCN1CC(Oc2ccc(Cl)cc2)C1 [Example 83, 1-{(S)-3-[3-(4-Chloro-phenoxy)-azetidin-1-yl]-1-hydroxymethyl-propyl}-3-(5-cyclopropyl-2-methyl-2H-pyrazol-3-yl)-urea] | 5 | – | –
CCc1cc(NC(=O)N[C@H](CO)CCN2CC(Oc3ccc(Cl)cc3)C2)n(C)n1 [Example 88, 1-{(S)-3-[3-(4-Chloro-phenoxy)-azetidin-1-yl]-1-hydroxymethyl-propyl}-3-(5-ethyl-2-methyl-2H-pyrazol-3-yl)-urea] | 6 | – | –
CCc1nnc(NC(=O)N[C@H](CO)CCN2CC(Oc3ccc(Cl)cc3)C2)s1 [Example 99, 1-{(S)-3-[3-(4-Chloro-phenoxy)-azetidin-1-yl]-1-hydroxymethyl-propyl}-3-(5-ethyl-[1,3,4]thiadiazol-2-yl)-urea] | 7 | – | –
COc1cc(NC(=O)N[C@@H](CCN2CC(Oc3ccc(Cl)cc3)C2)COC(C)=O)cc(OC)c1 [Example 122, Acetic acid (S)-4-[3-(4-chloro-phenoxy)-azetidin-1-yl]-2-[3-(3,5-dimethoxy-phenyl)-ureido]-butyl ester] | 22 | – | –
CCc1nnc(NC(=O)NCCCN2CC(Cc3ccc(Cl)cc3)C2)s1 [Example 190, 1-{3-[3-(4-chloro-benzyl)-azetidin-1-yl]-propyl}-3-(5-ethyl-[1,3,4]thiadiazol-2-yl)-urea] | 11 | histamine H1 antagonists | –
O=C1c2ccccc2CCC1CNCCc1ccc(O)c(I)c1 (centres unmarked) [[^125I]-HEAT] | – | – | 0.0589 ± 0.0187
